# Columns and labels:
# [1] = system: very dry, irritated and problematic skin; assay: Tending effect of care product on skin; type: in vivo; conditions: 0.5% (wt. percent) ectoine in evening primrose oil containing product
# [2] = 0.1% (wt. percent) added to evening primrose oil preparation; room temperature, 25° C.; first occurrence of rancid smell
# Protocol: The stability of the preparation was assessed based on the first occurrence of a rancid smell of the evening primrose oil.
Compound,tending effect compared with evening primrose oil containing tending product of identical composition [1],improved evening primrose oil storage stability compared to a check preparation without diglycerol phosphates [2]
CC1=NCC[C@@H](C(=O)O)N1 [ectoine],noticeably better tending effect,
diglycerol phosphate,,five

# Reference: US20080014153A1, “Topical Preparation For Application To The Skin Containing Natural Oil Of The Evening Primrose (Oenothera Biennis) (=Oleum Oenotherae) And Osmolytes Originating From Extremophilic Microorganisms” (priority 2004, published 2008)
